Source: patent EP4567035A1, “NOVEL COMPOUND AS HYPOXIA-INDUCIBLE FACTOR 1(HIF-1) INHIBITOR OR VASCULAR ENDOTHELIAL GROWTH FACTOR (VEGF) INHIBITOR, AND PHARMACEUTICAL COMPOSITION COMPRISING SAME” (Nextgen Bioscience Co., Ltd., priority 2022, dated 2024)
Where two headings read alike, the source gives them in different places.

Legend:
HIF-1α = molecular target: T1, HIF-1α (Homo sapiens, UniProt Q16665); experiment: Analysis of HIF-1α protein expression (Western blot) in ARPE-19 cells under mixed hypoxic condition; format: cell-based; conditions: concentration range at which HIF-1α expression is reduced by 50% vs untreated control
T1 construct: endogenous in cells; host or cells: ARPE-19 (ATCC CRL-2302)
How it was run: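 ARPE-19 cells were pretreated 16 h or 2 h with compound (0.1 nM–10 µM, serum-free DMEM/F12), then held 1 h or 24 h in mixed hypoxia (1% O2 plus CoCl2). HIF-1α was quantified by Western blot against β-actin; the concentration range giving ≥50% reduction vs untreated control was reported.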

VEGF = experiment: Evaluation of VEGF protein secretion level (Human VEGF ELISA) in ARPE-19 cell medium under hypoxic conditions; format: cell-based
How it was run: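 Human ARPE-19 cells were pretreated 2 h with compound (0.1 nM–10 µM, in DMEM/F12 with 1% FBS), then held 24 h in hypoxia (1% O2, 5% CO2). Secreted VEGF in the supernatant was quantified by ELISA (A450). The value is the concentration range giving ≥50% VEGF reduction versus untreated control.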

[1] = values marked * in the table, mixed hypoxic condition (1% oxygen + CoCl2) for 24 hours, read-out: IC50 HIF-1α, Hypoxia(24h)
[2] = ARPE-19 cells, pretreated 2 hours, 24 hours hypoxic conditions, secreted VEGF in medium supernatant by ELISA, concentration range reducing VEGF by 50% vs untreated control, read-out: IC50 VEGF
[3] = mixed hypoxic condition (1% oxygen + CoCl2) for 1 hour, read-out: IC50 HIF-1α Hypoxia (1 hour)
[4] = ARPE-19 cells, pretreated 2 hours, 24 hours hypoxic conditions, ELISA, read-out: concentration at which the secreted VEGF protein level was suppressed to less than 50%
[5] = Experimental Example 2 (HIF-1α Western blot), read-out: concentration at which the expression level of VEGF was suppressed to less than 50%

T1 sequence (Q16665 whole entry): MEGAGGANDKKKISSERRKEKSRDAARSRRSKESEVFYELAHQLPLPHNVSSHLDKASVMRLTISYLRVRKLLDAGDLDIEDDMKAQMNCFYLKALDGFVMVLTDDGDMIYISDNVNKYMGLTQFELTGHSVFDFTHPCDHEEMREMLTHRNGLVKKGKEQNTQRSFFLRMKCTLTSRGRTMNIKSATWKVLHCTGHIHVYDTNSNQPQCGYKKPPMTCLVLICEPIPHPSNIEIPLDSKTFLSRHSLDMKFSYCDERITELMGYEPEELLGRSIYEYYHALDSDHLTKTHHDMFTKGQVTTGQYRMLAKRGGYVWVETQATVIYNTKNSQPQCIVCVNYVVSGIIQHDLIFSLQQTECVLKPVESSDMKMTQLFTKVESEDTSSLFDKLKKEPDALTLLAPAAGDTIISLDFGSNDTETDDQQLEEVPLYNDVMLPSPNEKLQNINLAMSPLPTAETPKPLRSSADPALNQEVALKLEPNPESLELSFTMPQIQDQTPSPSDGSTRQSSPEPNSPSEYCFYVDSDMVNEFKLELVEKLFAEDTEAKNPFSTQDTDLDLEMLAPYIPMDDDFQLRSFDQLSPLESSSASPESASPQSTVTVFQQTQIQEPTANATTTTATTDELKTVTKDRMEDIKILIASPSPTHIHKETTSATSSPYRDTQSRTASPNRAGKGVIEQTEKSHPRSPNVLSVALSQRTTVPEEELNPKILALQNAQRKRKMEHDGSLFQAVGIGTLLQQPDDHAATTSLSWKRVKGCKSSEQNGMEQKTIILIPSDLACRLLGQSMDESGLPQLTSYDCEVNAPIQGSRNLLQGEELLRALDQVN

Compound | DC50 (HIF-1α; [1]) | IC50 (VEGF; [2]) | DC50 (HIF-1α; [3]) | IC50 (VEGF; [4]) | IC50 (VEGF; [5])
O=C(NCc1cc(F)cc(-c2cnn(-c3ccc(F)cc3)c2)c1)c1ncnc2nc([C@H]3CCCO3)[nH]c12 [Example 85, (R)-N-(3-fluoro-5-(1-(4-fluorophenyl)-1H-pyrazol-4-yl)benzyl)-8-(tetrahydrofuran-2-yl)-7H-purine-6-carboxamide] | < 100 nM | 1000 to 10000 nM | – | – | –
[2H]C([2H])([2H])n1cc(Nc2cc(F)cc(CNC(=O)c3ncnc4nc(C5CCC(F)(F)C5)[nH]c34)c2)cn1 (centres unmarked) [Example 152, 8-(3,3-Difluorocyclopentyl)-N-(3-fluoro-5-((1-(methyl-d3)-1H-pyrazol-4-yl)amino)benzyl)-7H-purine-6-carboxamide] | < 100 nM | 100 to 1000 nM | – | – | –
O=C(NCc1cc(F)cc(-c2cnn(-c3ccc(F)cc3)c2)c1)c1ncnc2nc(C3CC4CC4C3)[nH]c12 (centres unmarked) [Example 113, 8-(Bicyclo[3.1.0]hexan-3-yl)-N-(3-fluoro-5-(1-(4-fluorophenyl)-1H-pyrazol-4-yl)benzyl)-7H-purine-6-carboxamide] | < 100 nM | 100 to 1000 nM | – | – | –
NC(=O)c1ccc(Nc2cc(F)cc(CNC(=O)c3ncnc4nc(C5CCCC5)[nH]c34)c2)cc1 [Example 126, N-(3-((4-carbamoylphenyl)amino)-5-fluorobenzyl)-8-cyclopentyl-7H-purine-6-carboxamide] | < 100 nM | < 100 nM | – | – | –
O=C(NCc1cc(F)cc(-c2cnn(-c3ccc(F)cc3)c2)c1)c1ncnc2nc(C3CC4CCC3C4)[nH]c12 (centres unmarked) [Example 114, 8-(Bicyclo[2.2.1]heptan-2-yl)-N-(3-fluoro-5-(1-(4-fluorophenyl)-1H-pyrazol-4-yl)benzyl)-7H-purine-6-carboxamide] | 100 to 1000 nM | 100 to 1000 nM | – | – | –
CC1(C)CC(c2nc3ncnc(C(=O)NCc4cc(F)cc(-c5cnn(-c6ccc(F)cc6)c5)c4)c3[nH]2)C1 [Example 97, 8-(3,3-Dimethylcyclobutyl)-N-(3-fluoro-5-(1-(4-fluorophenyl)-1H-pyrazol-4-yl)benzyl)-7H-purine-6-carboxamide] | 100 to 1000 nM | 100 to 1000 nM | – | – | –
O=C(NCc1cc(F)cc(-c2cnn(-c3cnn(Cc4ccccc4)c3)c2)c1)c1ncnc2nc(C3CCCC3)[nH]c12 [Example 125, N-(3-(1'-benzyl-1'H-[1,4'-bipyrazol]-4-yl)-5-fluorobenzyl)-8-cyclopentyl-7H-purine-6-carboxamide] | < 100 nM | 100 to 1000 nM | – | – | –
CS(=O)(=O)c1cccc(-n2cc(-c3cc(F)cc(CNC(=O)c4ncnc5nc(C6CCCC6)[nH]c45)c3)cn2)c1 [Example 45, 8-Cyclopentyl-N-(3-fluoro-5-(1-(3-(methylsulfonyl)phenyl)-1H-pyrazol-4-yl)benzyl)-7H-purine-6-carboxamide] | < 100 nM | < 100 nM | – | < 100 nM | < 100 nM
[2H]c1c([2H])c([2H])c(-n2cc(-c3cc(F)cc(CNC(=O)c4ncnc5nc(C6CCCC6)[nH]c45)c3)cn2)c([2H])c1[2H] [Example 145, 8-Cyclopentyl-N-(3-fluoro-5-(1-phenyl-d5-1H-pyrazol-4-yl)benzyl)-7H-purine-6-carboxamide] | < 100 nM | 100 to 1000 nM | – | – | –
O=C1CC[C@@H](c2nc3ncnc(C(=O)NCc4cc(F)cc(-c5cnn(-c6ccc(F)cc6)c5)c4)c3[nH]2)C1 [Example 86, (R)-N-(3-fluoro-5-(1-(4-fluorophenyl)-1H-pyrazol-4-yl)benzyl)-8-(3-oxocyclopentyl)-7H-purine-6-carboxamide] | 100 to 1000 nM | 100 to 1000 nM | – | – | –
Cc1nn(-c2ccc(F)cc2)cc1-c1cc(F)cc(CNC(=O)c2ncnc3nc(C4CCCC4)[nH]c23)c1 [Example 146, 8-Cyclopentyl-N-(3-fluoro-5-(1-(4-fluorophenyl)-3-methyl-1H-pyrazol-4-yl)benzyl)-7H-purine-6-carboxamide] | 100 to 1000 nM | 100 to 1000 nM | – | – | –
O=C(NCc1cc(F)cc(-c2cnn(-c3ccc(C(F)(F)F)cc3)c2)c1)c1ncnc2nc(C3CCCC3)[nH]c12 [Example 26, 8-Cyclopentyl-N-(3-fluoro-5-(1-(4-(trifluoromethyl)phenyl)-1H-pyrazol-4-yl)benzyl)-7H-purine-6-carboxamide] | – | 100 to 1000 nM | < 100 nM | – | –

Continued, values first:

DC50 (HIF-1α; [1]) | IC50 (VEGF; [2]) | DC50 (HIF-1α; [3]) | IC50 (VEGF; [4]) | IC50 (VEGF; [5]) | Compound
< 100 nM | 100 to 1000 nM | – | – | – | O=C(NCc1cc(F)cc(-c2ccsc2)c1)c1ncnc2nc(C3CCCC3)[nH]c12 [Example 40, 8-Cyclopentyl-N-(3-fluoro-5-(thiophen-3-yl)benzyl)-7H-purine-6-carboxamide]
– | < 100 nM | < 100 nM | < 100 nM | < 100 nM | O=C(NCc1cc(F)cc(-c2cnn(-c3ccncc3)c2)c1)c1ncnc2nc(C3CCCC3)[nH]c12 [Example 12, 8-Cyclopentyl-N-(3-fluoro-5-(1-(pyridin-4-yl)-1H-pyrazol-4-yl)benzyl)-7H-purine-6-carboxamide]
– | < 100 nM | < 100 nM | < 100 nM | < 100 nM | O=C(NCc1cc(F)cc(-c2cn[nH]c2)c1)c1ncnc2nc(C3CCCC3)[nH]c12 [Example 11, 8-Cyclopentyl-N-(3-fluoro-5-(1H-pyrazol-4-yl)benzyl)-7H-purine-6-carboxamide]
– | 100 to 1000 nM | < 100 nM | – | – | O=C(NCc1cc(F)cc(-c2cnn(CC(F)F)c2)c1)c1ncnc2nc(C3CCCC3)[nH]c12 [Example 2, 8-Cyclopentyl-N-(3-(1-(2,2-difluoroethyl)-1H-pyrazol-4-yl)-5-fluorobenzyl)-7H-purine-6-carboxamide]
< 100 nM | 100 to 1000 nM | – | – | – | Cn1ccc(Nc2cc(F)cc(CNC(=O)c3ncnc4nc(C5CCCC5)[nH]c34)c2)n1 [Example 118, 8-Cyclopentyl-N-(3-fluoro-5-((1-methyl-1H-pyrazol-3-yl)amino)benzyl)-7H-purine-6-carboxamide]
< 100 nM | 100 to 1000 nM | – | – | – | O=C(NCc1cc(F)cc(-c2cnn(-c3ccc(F)c(F)c3)c2)c1)c1ncnc2nc(C3CCCC3)[nH]c12 [Example 60, 8-Cyclopentyl-N-(3-(1-(3,4-difluorophenyl)-1H-pyrazol-4-yl)-5-fluorobenzyl)-7H-purine-6-carboxamide]
– | 100 to 1000 nM | < 100 nM | – | – | O=C(NCc1cc(F)cc(Nc2ccccc2)c1)c1ncnc2nc(C3CCCC3)[nH]c12 [Example 15, 8-Cyclopentyl-N-(3-fluoro-5-(phenylamino)benzyl)-7H-purine-6-carboxamide]
100 to 1000 nM | > 10000 nM | – | – | – | O=C(NCc1cc(F)cc(-c2cn(-c3ccc(F)cc3)nn2)c1)c1ncnc2nc(C3CCCC3)[nH]c12 [Example 119, 8-Cyclopentyl-N-(3-fluoro-5-(1-(4-fluorophenyl)-1H-1,2,3-triazol-4-yl)benzyl)-7H-purine-6-carboxamide]
100 to 1000 nM | > 10000 nM | – | – | – | O=C(NCc1cc(F)cc(Nc2nnco2)c1)c1ncnc2nc(C3CCCC3)[nH]c12 [Example 134, N-(3-((1,3,4-oxadiazol-2-yl)amino)-5-fluorobenzyl)-8-cyclopentyl-7H-purine-6-carboxamide]
< 100 nM | > 10000 nM | – | – | – | O=C(NCc1cc(F)cc(-c2cnn(C3CCOC3)c2)c1)c1ncnc2nc(C3CCCC3)[nH]c12 (centres unmarked) [Example 140, 8-Cyclopentyl-N-(3-fluoro-5-(1-(tetrahydrofuran-3-yl)-1H-pyrazol-4-yl)benzyl)-7H-purine-6-carboxamide]
– | 100 to 1000 nM | < 100 nM | – | – | CN(C)c1ccc(Nc2cc(F)cc(CNC(=O)c3ncnc4nc(C5CCCC5)[nH]c34)c2)cc1 [Example 18, 8-Cyclopentyl-N-(3-((4-(dimethylamino)phenyl)amino)-5-fluorobenzyl)-7H-purine-6-carboxamide]
< 100 nM | < 100 nM | – | – | – | N#Cc1ccc(Nc2cc(F)cc(CNC(=O)c3ncnc4nc(C5CCCC5)[nH]c34)c2)cc1 [Example 122, N-(3-((4-cyanophenyl)amino)-5-fluorobenzyl)-8-cyclopentyl-7H-purine-6-carboxamide]
100 to 1000 nM | > 10000 nM | – | – | – | O=C(O)c1ccc(Nc2cc(F)cc(CNC(=O)c3ncnc4nc(C5CCCC5)[nH]c34)c2)cc1 [Example 133, 4-((3-((8-Cyclopentyl-7H-purine-6-carboxamido)methyl)-5-fluorophenyl)amino)benzoic acid]
– | 100 to 1000 nM | < 100 nM | – | – | O=C(NCc1cc(F)cc(-c2cnn(-c3ccccc3)c2)c1)c1ncnc2nc(C3CCCC3)[nH]c12 [Example 7, 8-Cyclopentyl-N-(3-fluoro-5-(1-phenyl-1H-pyrazol-4-yl)benzyl)-7H-purine-6-carboxamide]
– | 100 to 1000 nM | < 100 nM | – | – | O=C(NCc1cc(F)cc(-c2cnn(-c3cncnc3)c2)c1)c1ncnc2nc(C3CCCC3)[nH]c12 [Example 32, 8-Cyclopentyl-N-(3-fluoro-5-(1-(pyrimidin-5-yl)-1H-pyrazol-4-yl)benzyl)-7H-purine-6-carboxamide]
– | 100 to 1000 nM | < 100 nM | – | – | O=C(NCc1cc(F)cc(Nc2ccc(Cl)cc2F)c1)c1ncnc2nc(C3CCCC3)[nH]c12 [Example 20, N-(3-((4-chloro-2-fluorophenyl)amino)-5-fluorobenzyl)-8-cyclopentyl-7H-purine-6-carboxamide]
